This is an account of results in patent US11319305B2, “Pyrimidine sulfamide derivative and preparation method and medical application thereof” (SHIJIAZHUANG SAGACITY NEW DRUG DEVELOPMENT CO., LTD., priority 2017, dated 2022).

One data set has as its target T1, CYP1A2 (Homo sapiens, UniProt P05177).
T1 construct: Mixed human liver microsomes (HLM) were purchased from Corning Inc; tissue Corning Inc; host or cells: pooled human liver microsomes
T1 sequence (P05177 1-516): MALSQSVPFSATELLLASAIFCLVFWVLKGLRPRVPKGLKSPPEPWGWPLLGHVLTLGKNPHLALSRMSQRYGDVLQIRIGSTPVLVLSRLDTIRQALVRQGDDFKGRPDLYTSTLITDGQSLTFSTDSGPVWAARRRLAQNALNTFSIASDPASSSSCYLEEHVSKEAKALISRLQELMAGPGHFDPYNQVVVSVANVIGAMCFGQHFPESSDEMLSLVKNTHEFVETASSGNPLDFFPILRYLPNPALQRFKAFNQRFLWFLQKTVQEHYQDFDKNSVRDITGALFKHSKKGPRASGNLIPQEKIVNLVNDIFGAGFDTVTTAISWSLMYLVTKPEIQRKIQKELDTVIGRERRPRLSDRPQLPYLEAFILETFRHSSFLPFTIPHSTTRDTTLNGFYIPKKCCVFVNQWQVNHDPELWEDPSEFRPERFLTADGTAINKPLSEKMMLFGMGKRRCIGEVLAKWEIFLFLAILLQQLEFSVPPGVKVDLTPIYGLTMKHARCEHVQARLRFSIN
The data set is described as follows: Human liver microsomal cytochrome P450 isozyme inhibition assay, CYP1A2. The class given is in vitro ADME. As to conditions: human liver microsomes. On the procedure:
Experimental Embodiment 4: Human Liver Microsomal Cytochrome P450 Isozyme Inhibition Assay The purpose of the assay was to evaluate the inhibitory activity of the samples against human liver microsomal cytochrome P450 isozyme (CYP1A2, CYP2C9, CYP2C19, CYP2D6 and CYP3A4) using the 5-in-1 probe substrate of the CYP isozyme. Mixed human liver microsomes (HLM) were purchased from Corning Inc. (Steuben, N.Y., USA) and stored below −80° C. before use. The test compound working solution which has been diluted into serial concentrations was added to an incubation system containing human liver microsomes, probe substrates and circulating system cofactors, and a control containing solvent without the test compound was used as the enzyme activity control (100%). The concentration of the metabolite produced by the probe substrate in the sample was determined using a liquid chromatography-tandem mass spectrometry (LC-MS/MS) method. Nonlinear regression analysis was performed on the average percent activity versus concentration of subjects using SigmaPlot (V.11). The IC50 value was calculated by a three-parameter or four-parameter inverse-logarithmic equation.
Background: Microsomes from liver hold many membrane-bound enzymes, among them those of drug oxidation.

Data set [1] concerns the target T2, Human Pregnane X Receptor (PXR) (Homo sapiens, UniProt O75469).
T2 construct: host or cells: DPX2 cells
T2 sequence (O75469 1-434): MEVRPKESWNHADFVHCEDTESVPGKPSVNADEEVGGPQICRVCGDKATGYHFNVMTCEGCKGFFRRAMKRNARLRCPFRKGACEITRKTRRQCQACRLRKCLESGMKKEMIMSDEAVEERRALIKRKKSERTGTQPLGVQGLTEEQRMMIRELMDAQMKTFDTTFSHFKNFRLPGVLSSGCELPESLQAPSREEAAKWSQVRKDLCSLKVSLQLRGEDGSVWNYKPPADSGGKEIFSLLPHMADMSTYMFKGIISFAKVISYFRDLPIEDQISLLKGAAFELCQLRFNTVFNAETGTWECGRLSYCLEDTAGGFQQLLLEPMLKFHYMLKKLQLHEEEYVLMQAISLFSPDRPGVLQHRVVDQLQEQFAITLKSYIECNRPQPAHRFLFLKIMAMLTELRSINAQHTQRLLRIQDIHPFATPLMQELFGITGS
The data set is described as follows: Human pregnane X receptor (PXR) assay, induction of PXR-mediated CYP3A expression in DPX2 cells. The class given is cell-based. On the procedure: Experimental Embodiment 3: Human Pregnane X Receptor (PXR) Assay
The effect of the compounds on the induction of PXR-mediated CYP3A expression was evaluated.
1. DPX2 cells were thawn under sterile conditions.
2. DPX2 cell solution was distributed in 96-well plate (100 μL/well), and the plate was placed in a 5% CO2/37° C. incubator overnight.
3. Quantitative feeding medium was thawn in a 37° C. water bath. Positive control rifampin was thawn at room temperature. A series of test compounds and positive control dilutions were prepared in quantitative feeding medium. The cells were carefully aspirated from each wells without disturbing the cells during aspiration and the medium was discarded. 100 μL of each test compound concentration was transferred to pre-labeled wells. The operation of the positive control group and the blank group were the same. The plate was placed back into the incubator for 24 hours exposure.
(1) 7 μL of Luciferin-IPA was added to […] feeding medium, the mixture was mixed by inverting, and poured into a Luciferin-IPA reagent tank.
(2) The 96-well plate was taken out from the incubator, and the media was carefully aspirated from each wells. 50 μL of the Luciferin-IPA reagent was added to each wells, and the cell plate was placed back into the incubator for 60 minutes.
(3) During incubation, the P450-Glo buffer was poured into the Luciferin detection reagent, and the mixture was mixed by inverting.
(4) The 96-well plate was taken out from the incubator, and 40 μL of solution from each well was transferred into the corresponding white 96-well plate, and the corresponding position of each wells was consistent with the original cell plate. […]
(8) After incubation with Luciferin detection reagent for 20 minutes, a photometer (set 1-5 seconds. Readout Time) was used to measure the luminescence of each wells of the white 96-well plate. […]
(10) After incubating for 60 minutes at 37° C., the original 96-well plate was taken out of the incubator. The reader was set to the fluorescence mode, the excitation wavelength was set to 380-400 nm, the emission wavelength was set to 505 nm, and the fluorescence intensity of each wells was measured.
(11) The cell plate was taken out of the enzyme reader, and 100 μL of ONE-Glo™ detection reagent was added to each wells. […]
(12) The enzyme reader was set to 5 seconds for pre-shaking and 5 seconds for wells reading, and the fluorescence intensity in each hole was measured. […]
The positive control was rifampicin, six concentrations were tested in each experiment. The data was analyzed using Prism to generate a concentration-response curve and the EC50 value of the compound was calculated.

Data set [2] has as its target T3, bile salt transport pump (BSEP) (Homo sapiens, UniProt O95342).
T3 construct: purchased Solvo Biotechnology SB-BSEP-Hi5-VT; host or cells: Hi5 insect cells (read from the product name; own knowledge)
Nature of the data set: Inhibition test on bile salt transfer pump (BSEP), taurocholic acid uptake in BSEP-Hi5-VT vesicles. The format is in vitro ADME.
Method: Prepared with buffer A, 8.16 mM ATP and 4.08 μM taurocholic acid were contained in 12 mL buffer A.
Prepared with buffer A, 8.16 mM AMP, 4.08 μM taurocholic acid 12 mL buffer A were contained in buffer A.
A solution containing BSEP-Hi5-VT 5 μg/μL was prepared with buffer A.
The compound was diluted to 100 mM with DMSO; then serially diluted 3-fold for an 11-point dilution; the minimum concentration was 0.169 μM.
Positive reference Glyburide was diluted to 20 mM with DMSO; then serially diluted 2-fold for an 11-point dilution; the minimum concentration was 19.5
0.3 μL of a solution of the compound in DMSO or a diluted DMSO solution were transferred into corresponding wells of the compound plate using ECHO, respectively.
14.7 μL of ATP buffer was added to the compound and the corresponding wells of zero percent effect (ZPE), respectively.
14.7 μL of AMP buffer was added to the corresponding wells of 100% effect (HPE), respectively.
The plate was shaked for 10 minutes at 25° C.
15 μL of BSEP-H15-VT Vesicle solution was added to all wells, respectively, and the plate was shaked for another 40 minutes at 25° C.
6.5 μL 0.5 M ethylenediaminetetraacetic acid (EDTA) solution was added to all wells immediately, followed by addition of 65 μL of buffer B, and the whole reaction was completed.
7.95 μL of liquid was transferred to the filter plate from the compound plate at the end of the reaction using an instrument.
After placing the liquid receiving plate under the filter plate, the liquid was removed using a centrifuge and the receiving plate liquid was discarded.
9.90 μL of buffer B was added to the filter plate. After placing the liquid receiving plate under the filter plate, the liquid was removed using a centrifuge, and the receiving plate liquid was discarded, and filter plate was washed for three times in total.
The filter plate was dried overnight.
On the next day, 80 μL of methanol/water (80/20, volume ratio) solution was added to the filter plate.
The plate was shaked for 15 minutes after the filter plate was attached to the membrane.
A new liquid receiving plate was placed under the filter plate, and the filter plate was centrifuged for 5 minutes, and all liquids in the filter plate were filtrated into the receiving plate.
15 μL of internal standard solution was added to each wells in the liquid receiving plate, and the plate was sealed with a membrane.
The content of taurocholic acid in the receiving plate was detected using LC/MS/MS.
Several concentrations were tested in each experiments. The data were analyzed using Prism to generate a concentration-response curve, and IC50 values of the compounds were calculated.

T3 sequence (O95342 whole entry): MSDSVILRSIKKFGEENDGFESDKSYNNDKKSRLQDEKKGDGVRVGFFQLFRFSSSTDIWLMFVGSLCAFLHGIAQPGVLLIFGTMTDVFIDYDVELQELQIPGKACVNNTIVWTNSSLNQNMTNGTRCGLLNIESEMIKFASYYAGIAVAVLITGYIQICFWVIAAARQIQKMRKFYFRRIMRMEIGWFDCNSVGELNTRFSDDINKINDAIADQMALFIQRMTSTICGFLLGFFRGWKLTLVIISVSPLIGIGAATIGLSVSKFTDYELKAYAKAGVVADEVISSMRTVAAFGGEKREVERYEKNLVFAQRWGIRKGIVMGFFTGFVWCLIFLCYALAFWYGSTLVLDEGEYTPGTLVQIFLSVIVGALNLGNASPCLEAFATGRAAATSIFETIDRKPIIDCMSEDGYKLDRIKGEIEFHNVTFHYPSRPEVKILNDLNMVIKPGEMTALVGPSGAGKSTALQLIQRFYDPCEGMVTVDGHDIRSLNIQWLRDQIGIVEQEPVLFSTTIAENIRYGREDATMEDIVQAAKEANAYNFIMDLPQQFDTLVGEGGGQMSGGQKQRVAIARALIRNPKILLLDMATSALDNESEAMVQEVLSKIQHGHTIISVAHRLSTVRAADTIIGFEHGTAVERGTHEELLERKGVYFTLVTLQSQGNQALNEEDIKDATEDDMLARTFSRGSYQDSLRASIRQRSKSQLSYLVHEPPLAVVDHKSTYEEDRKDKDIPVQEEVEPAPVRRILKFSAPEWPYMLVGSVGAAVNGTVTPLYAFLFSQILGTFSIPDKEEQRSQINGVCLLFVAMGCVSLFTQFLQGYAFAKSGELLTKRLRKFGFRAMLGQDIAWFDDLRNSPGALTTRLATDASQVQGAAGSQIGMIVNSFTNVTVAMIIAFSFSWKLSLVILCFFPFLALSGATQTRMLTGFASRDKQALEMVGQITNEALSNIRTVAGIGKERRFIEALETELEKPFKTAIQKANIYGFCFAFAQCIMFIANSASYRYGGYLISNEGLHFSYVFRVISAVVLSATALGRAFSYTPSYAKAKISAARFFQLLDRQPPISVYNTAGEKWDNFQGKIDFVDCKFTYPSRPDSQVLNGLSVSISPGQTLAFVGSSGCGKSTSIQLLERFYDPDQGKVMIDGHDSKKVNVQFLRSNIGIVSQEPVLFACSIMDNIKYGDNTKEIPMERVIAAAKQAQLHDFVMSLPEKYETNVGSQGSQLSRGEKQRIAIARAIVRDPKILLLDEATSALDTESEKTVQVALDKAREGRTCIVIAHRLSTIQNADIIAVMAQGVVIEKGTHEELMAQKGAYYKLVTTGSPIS

For orientation: IC50 means the midpoint of a concentration-inhibition curve. What is called EC50 is the concentration that produces a half-maximal response. In the case of `COCCNS(=O)(=O)Nc1ncnc(OCCOc2ncc(Br)cn2)c1-c1ccc2c(c1)OCO2` [WX013], the concentration for half-maximal inhibition (IC50) against CYP1A2 turned out to be 47 µM; in data set [2] (substrate taurocholic acid, read-out: IC50, inhibitory effect on the bile salt transport pump (BSEP)) it was 43.8 µM. In data set [1], the “induction effect on PXR-mediated CYP3A expression (in words)” value is “relatively weak induction effect”. Besides, the EC50 in data set [1] (DPX2 cells, 24 hours exposure, ± is calculation error of simulation curve, read-out: EC50, induction effect on PXR-mediated CYP3A expression) was 27.6 ± 1.33 µM. For the same compound, the “inhibitory effect on the bile salt transport pump (BSEP) (in words)” value in data set [2] is given as “extremely weak”.
